Experiments:
BM leukocyte precursors [1] = assay: Differentiation of dendritic cells from bone marrow leukocyte precursors; cell surface marker expression by flow cytometry; format: cell-based, BALB/c mouse; details: for differentiation of dendritic cells (in words): from BM precursors
Description: Cells were stained for the surface levels of indicated markers. Plates A-D represent surface levels of CD80, CD54, CD11c and H-2D (MHC class 1), respectively. […] The Green line represents staining of stimulated cells while the black line depicts staining of unstimulated cells.
(§1) The fine suspension obtained above was transferred into a 50 ml sterile centrifuge tube and centrifuged for 10 minutes at 1200 rpm. […] The pellets were washed using HBSS wash buffer and then centrifuged again for 10 minutes at 1200 rpm. This process was repeated for one more time. […] This suspension was then finally passed through a MACS (Magnetic Activated Cell Sorting) column to get essentially and predominately leukocyte precursors.
In order to evaluate the upregulation of various cell surface markers associated with Dendritic cells, flow cytometry on the cells stimulated with GM-CSF or the compound was carried out using fluorescent labeled antibodies to various molecules (CD11c, I-A^d, CD80, CD86, H2-D^d, CD54, CD40).
The hind limbs of the mouse were removed carefully and placed in a Petri dish with HBSS (Hanks Balanced Saline Solution) wash buffer. The tibias and femurs were cleared of all surrounding and attached tissues. This was followed by chipping the ends of bones. The bone marrow was flushed out by injecting HBSS solution into the bone with the help of a hypodermal syringe (No. 26 gauge). The bone marrow was finally made into a fine suspension by syringing in and out of the fluid several times using an 18 gauge syringe needle.

BM leukocyte precursors [2] = assay: Viability of stimulated BM leukocyte precursor cultures; format: cell-based, BALB/c mouse; parameters: Viability, % of Viable cells: reference not given here
Description: as §1

[3] = tested on: osteoclast precursors (murine bone marrow cells, M-CSF + RANKL); assay: In vitro osteoclastogenesis assay (TRAP staining); format: cell-based, Balb/c mice; details: for % inhibition of osteoclast formation / Number of TRAP-positive multinuclear cells/well of 96 well plate (Mean ± SEM): 6 days
Description: Culture of murine bone marrow cells in the presence of M-CSF and RANKL induces the formation of osteoclasts, which were detected as TRAP-positive cells. […] Values given are the mean±SD of five separate experiments.
For in vitro osteoclastogenesis bone marrow cells were isolated from 5- to 8-wk-old Balb/c mice. Mice were sacrificed by cervical dislocation and femora and tibiae were aseptically removed and dissected free of adherent soft tissues. The bone ends were cut, and the marrow cavity was flushed out with medium MEM from one end of the bone using a sterile 21-gauge needle. The bone marrow suspension was carefully agitated with a plastic Pasteur pipette to obtain a single-cell suspension. The cells were washed twice and resuspended (10^6 cells/ml) in aMEM containing 10% FBS. […] After 24 h, nonadherent cells were harvested and layered on a Ficoll-Hypaque gradient. Cells at the gradient interface were collected, washed and resuspended (5×10^5/ml) in AMEM containing 10% FBS. In this study, we called these stromal cell-free, M-CSF-dependent, nonadherent cells as osteoclast precursors. These osteoclast precursors were added to 96-well plates (100 μl/well) containing plastic coverslips. Each well received further 100 μl of medium containing M-CSF (30 ng/ml), RANKL (30 ng/ml) without or with various concentrations of purified compound. Cultures were fed every 2-3 days and after incubation for 6 days osteoclast formation was evaluated by tartrate-resistant acid phosphatase (TRAP) staining. The number of TRAP-positive multinucleated cells (MNCs) containing 3 or more nuclei was scored.
TRAP is preferentially expressed at high levels in osteoclast and is considered, especially in the mouse, to be an osteoclast marker. Cytochemical staining for TRAP is widely used for identifying the osteoclasts in vivo and in vitro. It is claimed to be specific for osteoclasts in bone. After incubation, cells on cover slips were washed in PBS, fixed in 10% formalin for 10 min and stained for acid phosphatase in the presence of 0.05 M sodium tartrate. The substrate used was napthol AS-BI phosphate. Only those cells that were strongly TRAP-positive (dark red) counted by light microscopy.

[4] = tested on: osteoclast precursors (murine bone marrow cells, M-CSF + RANKL); assay: In vitro osteoclastogenesis assay (TRAP staining); format: cell-based, Balb/c mice; details: M-CSF + RANKL + compound 5.0 μg/ml, 6 days
[5] = M-CSF + RANKL + compound 0.5 μg/ml
[6] = M-CSF + RANKL + compound 1.5 μg/ml
[7] = M-CSF + RANKL + compound 3.0 μg/ml
[8] = M-CSF + RANKL + compound 5.0 μg/ml
[9] = Table B, concentration not given
[10] = Table A, 15 ng/ml GM-CSF or 50 micro gram per ml synthetic compound, 48 h

Q: `O=C([O-])CC[C@H](NS(=O)(=O)[O-])C(=O)[O-].O=C([O-])CC[C@H](NS(=O)(=O)[O-])C(=O)[O-].[Ca+2].[Ca+2].[Ca+2]` [compound 1, L-glutamyl-N-sulphonic acid, Ca salt] was tested. Which “concentration of maximum up regulation of cell surface densities of CD11c, CD80, CD54” value (BM leukocyte precursors [1]; BM leukocyte precursors incubated with different concentrations) did it give?
A: 200 mM

Q: And the “differentiation of dendritic cells (in words)” value (BM leukocyte precursors [1]; listed as Compound I)?
A: Induces Differentiation of Dendritic Cells

Q: What about the “differentiation of dendritic cells (in words)” value (BM leukocyte precursors [1]; listed as the compound) of the same molecule?
A: induces the differentiation of DCs from BM precursors

Q: And the “viability of the cultures at the end of the incubation period” value (BM leukocyte precursors [2]; 200 mM, 48 h)?
A: more than 99%

Q: What about the “viability of the cultures at the end of the incubation period” value (BM leukocyte precursors [2]; 50 micro gram per ml, 48 h) of the same molecule?
A: > 99%

Q: And the “% inhibition of osteoclast formation” value [3, 5]?
A: 21.01%

Q: What about the “Number of TRAP-positive multinuclear cells/well of 96 well plate (Mean ± SEM)” value [3, 5] of the same molecule?
A: 109.67 ± 9.79 cells/well

Q: What about the “% inhibition of osteoclast formation” value [3, 6] of the same molecule?
A: 62.19%

Q: And the “Number of TRAP-positive multinuclear cells/well of 96 well plate (Mean ± SEM)” value [3, 6]?
A: 52.17 ± 6.42 cells/well

Q: What about the “% inhibition of osteoclast formation” value [3, 7] of the same molecule?
A: 89.36%

Q: What about the “Number of TRAP-positive multinuclear cells/well of 96 well plate (Mean ± SEM)” value [3, 7] of the same molecule?
A: 14.67 ± 1.98 cells/well

Q: What about the “% inhibition of osteoclast formation” value [3, 8] of the same molecule?
A: 97.94%

Q: What about the “inhibition in the number of osteoclast cells generated (in words)” value ([3]; increasing dose) of the same molecule?
A: dose dependent inhibition

Q: What about the “Number of TRAP-positive multinuclear cells/well of 96 well plate (Mean ± SEM)” value [4] of the same molecule?
A: 2.83 ± 1.05 cells/well

Q: `O=C(O)CC[C@H](NS(=O)(=O)O)C(=O)O` [compound 3, L-glutamyl-N-sulphonic acid] was tested. Which “Viability, % of Viable cells” value (BM leukocyte precursors [2]; [9]) did it give?
A: 115%

Q: And the “Number of TRAP-positive multinuclear cells/well of 96 well plate (Mean ± SEM)” value [3, 5]?
A: 154.67 ± 8.43 cells/well

Q: What about the “Number of TRAP-positive multinuclear cells/well of 96 well plate (Mean ± SEM)” value [3, 6] of the same molecule?
A: 150.33 ± 8.82 cells/well

Q: What about the “% inhibition of osteoclast formation” value [3, 7] of the same molecule?
A: 23.23%

Q: What about the “Number of TRAP-positive multinuclear cells/well of 96 well plate (Mean ± SEM)” value [3, 7] of the same molecule?
A: 112.67 ± 8.63 cells/well

Q: And the “% inhibition of osteoclast formation” value [3, 8]?
A: 25.08%

Q: What about the “Number of TRAP-positive multinuclear cells/well of 96 well plate (Mean ± SEM)” value [4] of the same molecule?
A: 110.00 ± 6.72 cells/well

Q: What does the source list for “GM-CSF: the growth factor that is conventionally used to generate DCs in vitro”?
A: Fold increase in Relative MFI over unstimulated control, CD11c (BM leukocyte precursors [1]; [10]): 5.0 fold; Fold increase in Relative MFI over unstimulated control, CD54 (BM leukocyte precursors [1]; [10]): 4.0 fold; Fold increase in Relative MFI over unstimulated control, CD80 (BM leukocyte precursors [1]; [10]): 3.3 fold; Fold increase in Relative MFI over unstimulated control, H-2D^d (BM leukocyte precursors [1]; [10]): 2.0 fold; Fold increase in Relative MFI over unstimulated control, CD11c (BM leukocyte precursors [1]; [9]): 5.0 fold; Fold increase in Relative MFI over unstimulated control, CD54 (BM leukocyte precursors [1]; [9]): 4.0 fold; Fold increase in Relative MFI over unstimulated control, CD80 (BM leukocyte precursors [1]; [9]): 3.3 fold; Fold increase in Relative MFI over unstimulated control, H-2D^d (BM leukocyte precursors [1]; [9]): 2.0 fold; Viability, % of Viable cells (BM leukocyte precursors [2]; [10]): 180%; Viability, % of Viable cells (BM leukocyte precursors [2]; [9]): 180%
